Source: PMC9369007 (International Journal of Molecular Sciences, 2022)

Tests used:
MCF-7 cells [1] = experiment: Cell cycle analysis by flow cytometry; format: cell-based, human; parameters: DNA Content %G0-G1 / DNA Content %S / DNA Content %G2-M / DNA Content %Pre G1: dose or concentration left out as unconfirmed; settings: MCF-7, 24 h
Procedure: The cell cycle is a series of growth and development processes that culminate in DNA replication and cell division. G1 phase, S phase (synthesis), G2 phase, and M phase are the four different phases. We chose our promising chemical 27 based on the results of the MTT assay (Table 1) to further examine its effect on the apoptotic process and investigate its ability to play an active role in cell cycle progression in MCF-7 cells. MCF-7 cells were treated for 24 h with compound 27 at a concentration of […], and flow cytometry was performed in the presence of annexin V-FITC/PI.
(§1) Using the annexin V-FITC and PI apoptosis kit (eBioscience^TM, San Diego, CA, USA), the apoptosis detection was performed. MCF cells were plated onto a six-well plate at a 600,000 cells/mL density and then treated with compound 27 at […] after 24 h of incubation, and the assay was completed as previously described.
Cell cycle arrest and distribution was assessed, using the Propidium Iodide Flow Cytometry Kit (ab139418, Abcam, USA, CA, USA), followed by flow cytometry analysis according to the previous methodology.

MCF-7 cells [2] = experiment: Annexin V-FITC/PI dual staining apoptosis assay; format: cell-based, human; settings: MCF-7, 2.0 µM, 24 h
Procedure: This test used the breast MCF-7 cell line to assess the percentage of apoptosis caused by compound 27, in which MCF-7 cells were treated with compound 27 at 2.0 µM concentration for 24 h to measure the percentage of apoptosis induced by compound 27. […] These findings are in line with statistics derived from DNA content.
Each sample’s histogram was separated into four quadrants to show viable (lower left quadrant), necrotic (higher left quadrant), apoptotic (lower right quadrant), and necrotic/late apoptotic (upper right quadrant) cells. The Annexin V Apoptosis Detection Kit is based on the finding that apoptotic cells can transport phosphatidylserine (PS) from the plasma membrane’s inner surface to the cell surface. As a result, the presence of PS on the cell surface is regarded as an important technique for detecting apoptotic cells. PS can be easily detected by labeling with a fluorescent compound of annexin V, a protein with a high affinity for PS, and then analyzing the results by flow cytometry. When annexin V and PI staining are performed simultaneously, the kit can distinguish between apoptosis and necrosis. Only when the plasma membrane is completely damaged may PI enter the cell. This allows early apoptotic cells (negative for PI but positive for PS) to be distinguished from late apoptotic and necrotic cells (positive for both PI and PS). […] Cells were tested using annexin V and PI double-staining flow cytometry, which detect both PS residues and DNA, respectively, to validate the potential to trigger apoptosis. They were then cultured for 24 h before being examined. The tested compound was able to produce considerable levels of cell death in a dose-dependent manner, according to analyses of early and late apoptosis (Table 4, Figure 2 and Figure 3).
as §1
The MCF-7 cells were treated with tested compounds 27 for 24 h and stained with annexin V-FITC/PI to detect externalization of PS from cell membrane and analyze apoptotic and necrotic cell population as previously described.

HepG2 and MCF-7 cells = experiment: DNA fragmentation, diphenylamine test; format: cell-based, human; settings: 24 h at IC50 value, untreated control about 4.7 ± 0.2%
Procedure: Apoptosis is characterized by DNA fragmentation, which occurs in all stages of the process. The percentage of fragmented DNA released into the cytoplasm from apoptotic nuclei was determined using a diphenylamine test.
DNA fragmentation was quantitatively determined using a diphenylamine (DPA) reagent according to the method of Boraschi and Maurizi.

hMAO-A = target: T1, hMAO-A (Homo sapiens, UniProt P21397); experiment: MAO activity screening, hMAO-A; format: biochemical; settings: tyramine at 2 × KM (0.8 mM); two independent experiments
T1 sequence (P21397 1-527): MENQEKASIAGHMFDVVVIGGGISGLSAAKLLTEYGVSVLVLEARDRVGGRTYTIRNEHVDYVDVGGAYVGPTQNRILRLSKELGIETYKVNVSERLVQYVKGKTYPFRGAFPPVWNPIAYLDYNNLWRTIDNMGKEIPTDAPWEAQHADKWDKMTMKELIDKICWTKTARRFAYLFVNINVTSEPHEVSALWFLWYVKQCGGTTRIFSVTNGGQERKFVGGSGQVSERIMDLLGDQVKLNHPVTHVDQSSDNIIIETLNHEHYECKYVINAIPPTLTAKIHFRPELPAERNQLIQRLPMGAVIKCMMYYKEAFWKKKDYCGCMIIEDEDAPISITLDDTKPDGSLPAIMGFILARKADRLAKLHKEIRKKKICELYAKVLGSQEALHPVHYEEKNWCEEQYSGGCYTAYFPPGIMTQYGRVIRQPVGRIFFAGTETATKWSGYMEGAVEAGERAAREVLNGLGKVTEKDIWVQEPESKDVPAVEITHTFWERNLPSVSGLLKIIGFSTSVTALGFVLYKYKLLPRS
Procedure: (§2) Here, the potent selective compound 27 was screened for measuring target selectivity against high structural similar membrane-bound human hMAO-A and hMAO-B at 10 µM in the presence of tyramine at 2 × KM (0.8 mM for MAO-A and 0.32 mM for MAO-B) (Table 5).
(§3) The coupled assay approach was used to evaluate MAO activity in which the product, H2O2, acts with horseradish peroxidase to convert 10-acetyl-3,7-dihydroxyphenoxazine to the fluorescent resorufin. The percent inhibition was computed from the top and bottom of the resultant curve using the equation for a three-parameter curve in GraphPad Prism v. 4, (Graphstats, New York, NY, USA).

hMAO-B = target: T2, hMAO-B (Homo sapiens, UniProt P27338); experiment: MAO activity screening, hMAO-B; format: biochemical; settings: tyramine at 2 × KM (0.32 mM); two independent experiments
T2 sequence (P27338 1-520): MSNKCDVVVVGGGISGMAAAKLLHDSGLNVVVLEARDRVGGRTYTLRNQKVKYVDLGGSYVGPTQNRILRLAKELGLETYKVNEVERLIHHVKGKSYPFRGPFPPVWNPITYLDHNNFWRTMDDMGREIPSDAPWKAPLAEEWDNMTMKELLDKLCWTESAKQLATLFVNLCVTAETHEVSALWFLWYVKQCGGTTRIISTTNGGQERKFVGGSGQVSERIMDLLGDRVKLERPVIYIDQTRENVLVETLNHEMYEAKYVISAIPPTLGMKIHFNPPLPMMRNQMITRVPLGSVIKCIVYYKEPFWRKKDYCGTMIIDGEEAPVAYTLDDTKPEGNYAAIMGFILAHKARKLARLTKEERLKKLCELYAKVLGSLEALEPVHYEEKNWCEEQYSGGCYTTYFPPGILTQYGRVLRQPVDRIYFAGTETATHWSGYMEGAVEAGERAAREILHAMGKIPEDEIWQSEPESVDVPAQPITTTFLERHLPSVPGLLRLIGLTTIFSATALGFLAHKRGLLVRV
Procedure: as §2, §3

in vitro = settings: human, WI38 normal lung fibroblast cells
MCF-7 cells [3] = experiment: MTT cytotoxicity assay, MCF-7; settings: Homo sapiens, MCF7, 72 h, read-out: In Vitro Cytotoxicity IC50 MCF-7
Procedure: (§4) The in vitro cytotoxic testing of novel derivatives was performed against different three cancer cell lines, HepG2, MCF-7, and HCT116, using standard MTT assay as previously reported [22, 62, 63, 64].

HepG2 cells = experiment: MTT cytotoxicity assay, HepG2; settings: Homo sapiens, HepG2, 72 h, read-out: In Vitro Cytotoxicity IC50 HepG2
Procedure: as §4

HCT116 cells = experiment: MTT cytotoxicity assay, HCT116; settings: Homo sapiens, HCT-116, 72 h, read-out: In Vitro Cytotoxicity IC50 HCT116
Procedure: as §4

LSD1 demethylase = LSD1 demethylase (Homo sapiens, UniProt O60341); experiment: LSD1 demethylase inhibition assay
Procedure: The inhibition of LSD1 activity by our tested compounds was evaluated according to a previously reported procedure [65, 66, 67, 68] and as mentioned in the assay kit in Supplementary Materials.

## C=CCNc1nnc(-c2cc(-c3nnc(NCC=C)s3)cc(-c3nnc(NCC=C)s3)c2)s1 [Compound 27, 5,5′,5″-(benzene-1,3,5-triyl)tris(N-allyl-1,3,4-thiadiazol-2-amine)]
MCF-7 cells [1]
  Comment (cell cycle): pre G1 Apoptosis and cell cycle arrest at G2-M
  DNA Content %G0-G1: 35.15%
  DNA Content %G2-M: 35.59%
  DNA Content %Pre G1: 37.11%
  DNA Content %S: 28.26%
MCF-7 cells [2]
  Apoptosis Early: 5.33%
  Apoptosis Late: 20.53%
  Apoptosis Total: 37.11%
  Enhancement of late apoptosis compared with untreated cells: 114 fold
  Necrosis: 11.25%
HepG2 and MCF-7 cells
  Percentage of DNA fragmentation: ~23 ± 1.2%
hMAO-A
  IC50: 87.1 ± 2.36 µM
hMAO-B
  IC50: > 100 µM
In vitro
  IC50 at 72 h: > 85 µM
MCF-7 cells [3]
  IC50: 1.52 ± 1.02 µM
HepG2 cells
  IC50: 24.7 ± 1.01 µM
HCT116 cells
  IC50: 10.3 ± 0.15 µM
LSD1 demethylase; LSD1 inhibition IC50, as quoted in the docking section
  IC50: 0.0464 µM
LSD1 demethylase; LSD1 inhibitory IC50, Table 2, mean ± S.D., at least three tests
  IC50: 0.046 ± 0.003 µM
